According to patent US12617804B2, “Conjugation-fused bipolar redox-active molecule, preparation method, and application thereof” (Hangzhou Normal University, priority 2021, dated 2026):

Experiments:
[1] = Cyclic voltammetry (CV), TBA-TFSI supporting electrolyte in acetonitrile; format: physicochemical
Description: Redox kinetics of QPT-OMe obtained in Embodiment 1 is tested by cyclic voltammetry (CV). Tetrabutylammonium bis(trifluoromethylsulfonyl)imide (TBA-TF SI) is used as a supporting electrolyte and acetonitrile as a solvent. The results are shown in FIG. 3, where two pairs of symmetrical cathodic and anodic peaks can be clearly observed. The half-wave potentials of −2.04 and 0.72 V (with respect to Ag^+/Ag) correspond to the reduction and oxidation reactions of QPT-OMe, respectively. The open-circuit voltage is about 2.76 V when using QPT-OMe as the active material in the RFB, which is one of the highest value for bipolar molecules so far.
Furthermore, the QPT-OMe/QPT-OMe and QPT-P-OMe/QPT-OMe redox pairs show high rate constants of 1.4×10^−2 and 1.6×10-2 cm s^−1, respectively, by calculation. This is probably due to the relatively low recombination energy required for single electron transfer to occur from a large off-domain π-conjugated system. The high rate constants also imply negligible voltage loss when electrochemical reactions occur at the electrode surface.
The redox kinetics of QPT-TEG obtained in Embodiment 4 is tested by cyclic voltammetry (CV). Tetrabutylammonium bis(trifluoromethylsulfonyl)imide (TBA-TF SI) is used as a supporting electrolyte and acetonitrile as a solvent.

[2] = Miscibility of QPT-TEG with polar organic solvents; format: physicochemical; details: acetonitrile, dimethyl sulfoxide, dichloromethane and other solvents, in any ratio
Text: The bipolar redox-active molecule with the above structure (QPT-TEG) is a […] fluid that is miscible with most polar organic solvents. QPT-TEG is able to increase the overall solubility of the molecule by introducing long ether chains without changing the redox potential of the designed redox subject molecule.

[3] = with respect to Ag+/Ag, TBA-TFSI, acetonitrile

## COc1ccc2c(c1)c(=O)c1cccc3c1n2-c1ccccc1S3 [QPT-OMe]
[1]
  electrochemical window: ~3 V
[1]; first-named redox pair, by calculation
  rate constant, QPT-OMe/QPT-OMe redox pair: 0.014 cm/s
[1]; from the two half-wave potentials
  open-circuit voltage as active material in the RFB: about 2.76 V
[1]; [3]
  half-wave potential, oxidation reaction: 0.72 V
  half-wave potential, reduction reaction: −2.04 V

## COCCOCCOCCOc1ccc2c(c1)c(=O)c1cccc3c1n2-c1ccccc1S3 [QPT-TEG]
[2]
  miscibility with solvents: miscible
[1]; compared with QPT-OMe, FIG. 5
  redox behavior in CV: basically the same as that of QPT-OMe
